Data as given in patent US12187720B2, “Compounds for treatment of cancer” (ONCTERNAL THERAPEUTICS, INC., priority 2010, dated 2025).
Values after ≈ are worked out from the molar mass of the structure shown. Where a name gives a salt, the structure may show the parent alone. Read-outs that look alike come from different tables or passages of the source.

What was measured:
A375 = assay: SRB cytotoxicity assay, A375 human melanoma cells; type: cell-based; settings: read-out: IC50 ± SEM A375
Bovine brain tubulin = assay: In vitro tubulin polymerization assay (bovine brain tubulin); type: biochemical; settings: 10 μM, 20 min incubation, versus vehicle
[1] = Aqueous solubility, Multiscreen Solubility Filter Plate with LC-MS/MS (PBS pH 7.4); type: physicochemical; settings: for aqueous solubility: PBS pH 7.4
WM-164 = assay: SRB cytotoxicity assay, WM-164 human melanoma cells; type: cell-based; settings: Homo sapiens
[2] = tested on: melanoma and prostate cancer cell lines; assay: SRB cytotoxicity, summary or average over melanoma and prostate cancer cell lines; type: cell-based; settings: average of all seven cell lines
[3] = Metabolic stability in rat liver microsomes; type: in vitro ADME; settings: rat, liver microsomes, pH 7.4; Table 20; read-out: Half life in Rat liver microsome
in vivo [4] = settings: male, ICR, mouse, plasma, po, 20 mg/kg
[5] = Metabolic stability in dog liver microsomes; type: in vitro ADME; settings: dog, dog liver microsomes, pH 7.4; Table 20; read-out: Half life in Dog liver microsome
in vivo [6] = settings: female, Sprague-Dawley, rat, plasma
[7] = Metabolic stability in mouse liver microsomes; type: in vitro ADME; settings: mouse, liver microsomes, pH 7.4, Table 20; read-out: Half life in Mouse liver microsome
[8] = Metabolic stability in human liver microsomes; settings: human, liver microsomes, pH 7.4
[9] = Water solubility, 48 h shaking in water, LC-MS; type: physicochemical
Description: Determination of water solubility. […] The suspension was centrifuged at 10,000 rpm for 10 min and filtered on 0.22 μm filter. Concentrations of each compound were measured by LC-MS, consisting of an HP S1100 HPLC instrument (Agilent, Foster ceity, CA) and a Bruker ESQUIRE MS detector with electrospray/ion trap instrument in positive ion mode (Bruker, Fremont, CA). For HPLC, a reverse phase Nova-pak C18 column (150 mm×3.9 mm, Waters, Milford, MA) was used. The mobile phase was composed of 20:80 v/v water/acetonitrile. […] The concentration of each compound was calculated by MS peak area according to the following calibration equation: y=1.3295x+114.24 (R^2=1.00). […] The amount (ng) in each injection was plotted again its relative mass peak area to generate the standard curve in FIG. 17.

LNCaP = assay: SRB cytotoxicity assay, LNCaP prostate cancer cells; type: cell-based, human; settings: Homo sapiens, LNCaP
Text: (§1) Cells were stained with SRB solution.

DU 145 = assay: SRB cytotoxicity assay, DU 145 prostate cancer cells; type: cell-based; settings: Homo sapiens, read-out: inhibitory effects DU145
Text: as §1

MDA-MB-435/LCCMDR1 = assay: SRB cytotoxicity assay, multidrug-resistant MDA-MB-435/LCCMDR1 melanoma cells; type: cell-based, human; settings: Homo sapiens, read-out: IC50 ± SEM MDA-MB-435/LCC6MDR1
PPC-1 = assay: SRB cytotoxicity assay, PPC-1 prostate cancer cells; type: cell-based, human; settings: Homo sapiens, PPC-1; Table 13B; read-out: inhibitory effects PPC1
Text: as §1

MDA-MB-435 = assay: SRB cytotoxicity assay, MDA-MB-435 parental melanoma cells; type: cell-based; settings: Homo sapiens, read-out: IC50 ± SEM MDA-MB-435
PC-3 = assay: SRB cytotoxicity assay, PC-3 prostate cancer cells; type: cell-based, human; settings: Homo sapiens, PC-3, read-out: inhibitory effects PC3
Text: as §1

DU145/TXR = assay: SRB growth inhibition, paclitaxel-resistant DU145/TXR cells; type: cell-based; settings: Homo sapiens, DU-145; Table 13A; read-out: inhibitory effects DU145/TXR
WM-164 melanoma cells = assay: Microtubule imaging (immunofluorescence) in WM-164 melanoma cells; type: cell-based, human; settings: 18 h
Text: Primary antibody for tubulin and fluorescence-labeled secondary antibody were subsequently added to the cells. Cell nuclei were stained by DAPI. Whole Cell Stain Green was also applied to all cells. All images were acquired with an Olympus IX71 inverted fluorescence microscope (Olympus Corp., Tokyo, Japan) with overlays from separate images of tubulin (red), nuclei (blue), and whole cells (green).

[10] = Brain penetration (brain and plasma concentrations) in nude mice; settings: IP 10 mpk, mean ± SD
PC-3/TxR tumors = settings: for tumor growth inhibition (TGI): day 1 and 9
[11] = Table 13B, read-out: inhibitory effects LNCaP
[12] = Table 13A, read-out: inhibitory effects LNCaP
[13] = PC-3/TxR xenograft, IV 10 mpk, day 1 and 9, end point day 19

## 5-Phenyl-2-(3,4,5-trimethoxybenzyl)-1H-imidazole and 4-phenyl-2-(3,4,5-trimethoxybenzyl)-1H-imidazole [102a]
A375; Table 14C
  IC50: 10200 ± 392 nM

## COc1cc(C(=O)c2cccc(-c3ccccc3)n2)cc(OC)c1OC [1c, (6-Phenylpyridin-2-yl)(3,4,5-trimethoxyphenyl)methanone]
Bovine brain tubulin
  inhibition of tubulin polymerization: 64%

## COc1cc(C(=O)c2csc(-c3ccc(CN)cc3)n2)cc(OC)c1OC [2r, (2-(4-(Aminomethyl)phenyl)thiazol-4-yl)(3,4,5-trimethoxyphenyl)methanone hydrochloride]
[1]; HCl salt versus 1h
  increase of solubility (fold): over 35 fold

## COc1cc(C(=O)c2csc(Nc3ccccc3)n2)cc(OC)c1OC [5a, (2-(phenylamino)thiazol-4-yl)(3,4,5-trimethoxyphenyl)methanone]
[1]
  aqueous solubility: 15 µg/mL (≈ 40.5 µM)

## COc1cc(C(=O)c2csc(Nc3ccc(F)cc3)n2)cc(OC)c1OC [5c, (2-(p-fluorophenylamino)thiazol-4-yl)(3,4,5-trimethoxyphenyl)methanone]
[1]
  aqueous solubility: 19 µg/mL (≈ 48.9 µM)

## COc1ccc(-c2nc(C(=O)c3ccc(F)cc3)cn2S(=O)(=O)c2ccccc2)cc1 [11cb, (4-fluorophenyl)(2-(4-methoxyphenyl)-1-(phenylsulfonyl)-1H-imidazol-4-yl)methanone]
WM-164; WM164, 48 h, Table 13, 48 h, read-out: IC50 ± SEM WM164 (converted)
  IC50: 43 nM
[2]
  IC50: 43 nM

## COc1cc(C(=O)c2c[nH]c(-c3ccc(Cl)cc3)n2)cc(OC)c1OC [12fa, (2-(4-chlorophenyl)-1H-imidazol-4-yl)(3,4,5-trimethoxyphenyl)methanone]
[3]
  half-life at 0.5 μM: 46 min
In vivo [4]
  bioavailability: 62%
[5]
  half-life at 0.5 μM: 26 min
[2]
  IC50: 43 nM
In vivo [6]; oral
  bioavailability: 35%
In vivo [6]; po, 10 mg/kg
  bioavailability: 35%
[7]
  half-life at 0.5 μM: 23 min
[8]
  half-life at 0.5 μM: 56 min

## COc1cc(C(=O)c2c[nH]c(-c3ccc(N(C)C)cc3)n2)cc(OC)c1OC [12ga, (2-(4-(dimethylamino)phenyl)-1H-imidazol-4-yl)(3,4,5-trimethoxyphenyl)methanone]
[9]
  water solubility, times greater than thiazole counterpart: about 200 times
[9]; thermodynamic from solid, water, 48 h, RT
  solubility at 48 h: 13 µg/mL (≈ 34.1 µM)
[2]
  IC50: 131 nM

## CN(C)c1ccc(-c2nc(C(=O)c3ccc(F)cc3)c[nH]2)cc1 [12gb, (2-(4-(dimethylamino)phenyl)-1H-imidazol-4-yl)(4-fluorophenyl)methanone]
WM-164; WM164, 48 h, Table 12, 48 h, read-out: IC50 ± SEM WM164 (converted)
  IC50: 62 ± 8 nM
A375; Homo sapiens, A-375, 48 h, Table 12, 48 h
  IC50: 56 ± 7 nM

## O=C(c1ccc(F)cc1)c1c[nH]c(-c2ccc(O)cc2)n1 [12kb]
A375; Table 12, 48 h
  IC50: 10000 nM

## COc1cc(C(=O)c2csc(-c3ccc4[nH]ccc4c3)n2)cc(OC)c1OC [66a]
[1]
  aqueous solubility: 3.8 µg/mL (≈ 9.63 µM)

## O=C(c1ccccc1)c1nc(-c2ccccc2)c[nH]1 [70aa, phenyl-(4-phenyl-1H-imidazol-2-yl)methanone]
LNCaP; [11]
  IC50: > 50000 nM
DU 145; Table 13B
  IC50: > 50000 nM
MDA-MB-435/LCCMDR1; Table 14D
  IC50: > 50000 nM
PPC-1
  IC50: > 50000 nM
MDA-MB-435; Table 14D
  IC50: > 50000 nM
PC-3; Table 13B
  IC50: > 50000 nM

## COc1cc(C(=O)c2nc(-c3ccc(Br)cc3)c[nH]2)cc(OC)c1OC [70d, (4-(4-bromophenyl)-1H-imidazol-2-yl)(3,4,5-trimethoxyphenyl)methanone]
LNCaP; [12]
  IC50: 15 nM
DU 145; Table 13A
  IC50: 66 nM
DU145/TXR
  IC50: 63 nM
PC-3; Table 13A
  IC50: 33 nM

## COc1cc(C(=O)c2nc(-c3ccc(C)cc3)c[nH]2)cc(OC)c1OC [70f, (4-p-tolyl-1H-imidazol-2-yl)(3,4,5-trimethoxyphenyl)methanone]
LNCaP; [12]
  IC50: 13 nM
DU145/TXR
  IC50: 21 nM

## COc1cc(C(=O)c2nc(-c3cc(OC)c(OC)c(OC)c3)c[nH]2)cc(OC)c1OC [70q, 3,4,5-trimethoxyphenyl-(4-(3,4,5-trimethoxyphenyl)-1H-imidazol-2-yl)methanone]
LNCaP; [11]
  IC50: > 50000 nM
DU 145; Table 13B
  IC50: > 50000 nM
MDA-MB-435/LCCMDR1; Table 14D
  IC50: 211 nM
PPC-1
  IC50: > 50000 nM
MDA-MB-435; Table 14D
  IC50: 149 nM
PC-3; Table 13B
  IC50: > 50000 nM

## COc1cc(Cc2nc(-c3ccccc3)c(C)[nH]2)cc(OC)c1OC [102b, 5-methyl-4-phenyl-2-(3,4,5-trimethoxybenzyl)-1H-imidazole]
A375; Homo sapiens, A-375, Table 14C
  IC50: > 50000 nM

## CCc1[nH]c(Cc2cc(OC)c(OC)c(OC)c2)nc1-c1ccccc1 [102c, 5-ethyl-4-phenyl-2-(3,4,5-trimethoxybenzyl)-1H-imidazole]
MDA-MB-435/LCCMDR1; Table 14C
  IC50: > 50000 nM
MDA-MB-435; Table 14C
  IC50: > 50000 nM

## CCCc1[nH]c(Cc2cc(OC)c(OC)c(OC)c2)nc1-c1ccccc1 [102d, 4-phenyl-5-propyl-2-(3,4,5-trimethoxybenzyl)-1H-imidazole]
MDA-MB-435/LCCMDR1; Table 14C
  IC50: 15900 nM
MDA-MB-435; Table 14C
  IC50: 11000 nM

## COc1ccc(S(=O)(=O)Nc2cccnc2Nc2ccc(O)cc2)cc1 [ABT-751, reference compound]
WM-164 melanoma cells
  effect on microtubules: microtubule fragmentation

## COc1cc(C(=O)c2csc(-c3ccccc3)n2)cc(OC)c1O [compound 34]
LNCaP; Table 6A, read-out: IC50 LNCaP
  IC50: > 10000 nM
WM-164; WM164, Table 6A, read-out: IC50 WM164
  IC50: > 10000 nM

## COc1cc(C(=O)c2csc(-c3ccc(N(C)C)cc3)n2)cc(OC)c1OC [corresponding thiazole analog]
[9]; water, 48 h, RT
  water solubility: 0.072 µg/mL (≈ 0.181 µM)

## CC(=O)O[C@@]12CO[C@@H]1C[C@H](O)[C@@]1(C)C(=O)[C@H](O)C3=C(C)[C@@H](OC(=O)[C@H](O)[C@@H](NC(=O)OC(C)(C)C)c4ccccc4)C[C@@](O)([C@@H](OC(=O)c4ccccc4)[C@H]21)C3(C)C [docetaxel, Docetaxel]
[10]; 1 hr
  Brain: 33 ± 14 ng/mL
  Plasma: 768 ± 92 ng/mL
[10]; 4 hr
  Brain: 20 ± 9 ng/mL
  Plasma: 345 ± 94 ng/mL
PC-3/TxR tumors; [13]
  TGI: 14%
  Tumor size End: 1774 ± 183 mm^3
PC-3/TxR tumors; PC-3/TxR xenograft, IV 20 mpk, day 1 and 9, end point day 19
  TGI: 56%
PC-3/TxR tumors; i.v. 10 mg/kg
  tumor growth inhibition (TGI): 14%
PC-3/TxR tumors; i.v. 20 mg/kg
  tumor growth inhibition (TGI): 56%
